Measured values taken from ChEMBL document CHEMBL4819132, “Discovery of novel tripeptide propylene oxide proteasome inhibitors for the treatment of multiple myeloma” (Bioorg Med Chem, 2021).

Legend:
Format in all cases: ADME, organism-based
[1] = Bioavailability in Sprague-Dawley rat at 10 mg/kg, ig measured by LC-MS/MS analysis; details: in vivo, po
[2] = Mean residence time in Sprague-Dawley rat at 1 mg/kg, iv measured by LC-MS/MS analysis; details: in vivo
[3] = Mean residence time in Sprague-Dawley rat at 10 mg/kg, ig measured by LC-MS/MS analysis; details: in vivo, po
[4] = AUClast in Sprague-Dawley rat at 1 mg/kg, iv measured by LC-MS/MS analysis; set-up: dose 1 mg/kg; details: in vivo
[5] = Tmax in Sprague-Dawley rat at 1 mg/kg, iv measured by LC-MS/MS analysis; details: in vivo
[6] = AUClast in Sprague-Dawley rat at 10 mg/kg, ig measured by LC-MS/MS analysis; set-up: dose 10 mg/kg; details: in vivo, po
[7] = Tmax in Sprague-Dawley rat at 10 mg/kg, ig measured by LC-MS/MS analysis; details: in vivo, po

bioavailability [1] [%]	MRT [2] [min]	MRT [3] [min]	AUClast [4] [ng·mL·h]	Tmax [5] [min]	AUClast [6] [ng·mL·h]	Tmax [7] [min]	SMILES
6.3	8.4	36.6	72	4.8	42	10.2	COC[C@H](NC(=O)c1cc(C)on1)C(=O)NCC(=O)N[C@@H](Cc1ccccc1)C(=O)[C@@]1(C)CO1
13.5	19.8	51.6	107	4.8	119	13.2	COC[C@H](NC(=O)c1cc(C)on1)C(=O)NCC(=O)N[C@@H](CC(C)C)C(=O)[C@@]1(C)CO1
